Among the data in publication PMC9927415, “Tyrosine Kinase Inhibitors Display Potent Activity against Cryptosporidium parvum” (Microbiology Spectrum, 2022) are EC50 and inhibition values, retold here.

pEC50: −log10 of the molar value.

One assay concerns Cryptosporidium parvum. Put plainly: In vitro C. parvum growth inhibition assay (Nluc reporter strain in HCT-8 cells). It counts as cell-based. The settings on record: 48 h; for pEC50: mean of two independent experiments, dose response 10 nM to 10 μM, read-out: Cp EC50; for inhibition at 10 µM: primary screen, 10 μM compound, three technical replicates, read-out: Mean percent inhibition of C. parvum growth. How it is done: Host intestinal epithelial adenocarcinoma (HCT-8) cells were seeded into 96-well plates and grown to 70% confluence in RPMI medium supplemented with L-glutamine, 10% fetal bovine serum (FBS), 0.1 U/mL penicillin, 0.1 μg/mL streptomycin, 0.25 μg/mL amphotericin B and 1 mM sodium pyruvate. The host cell medium was aspirated and replaced with Cryptosporidium infection media (RPMI containing 2% FBS, 0.1 U/mL penicillin, 0.1 μg/mL streptomycin and 0.25 μg/mL amphotericin B) media prior to infection. The HCT-8 cells were infected with bleached and washed Nluc expressing C. parvum oocysts (2,000 oocysts per well) to which 10 μM compounds were added and plates were incubated for 48 h at 37°C, 5% CO2 and luminescence was measured using the protocol described previously ([14], [58]). […] Negative (no drug) and positive control (10 μM nitazoxanide) wells (three replicates each) were also set-up in the same plate. After the incubation, medium was removed and 100 μL of NanoGlo lysis buffer (Promega) was added to the wells followed by incubation for 15 min at 37°C, 5% CO2. The lysate was suspended by pipetting and 100 μL of NanoGlo lysis buffer containing 1:50 of NanoGlo substrate (Promega) was added to each well. […] For the dose response assay, compounds were tested in triplicate wells in two independent experiments and percent luminescence of no drug was calculated.
EC50 values were calculated using a nonlinear regression (curve fit of log-dose versus response) in GraphPad Prism version 8.

Another assay has as its target T1, JAK kinase domains (Homo sapiens, UniProt O60674).
T1 construct: purchased DiscoverX (KINOMEscan)
As to the kind of experiment: KINOMEscan competitive binding. The note with it: 10 µM, n=1; kinase JAK2(Kin.Dom.2); read-out: Percent inhibition JAK2(Kin.Dom.2). The text has this: The kinases were expressed as fusions to T7 bacteriophage. This is a sensitive, competitive binding assay where test compounds were used to displace immobilized ATP-site binding probe ligands from kinases of interest. The amount of kinase that remained bound to the immobilized probe ligands on the solid support was quantified. Percentage inhibition data were was plotted on kinome trees using the web-based tool KinMap (http://www.kinhub.org/kinmap) ([60]).

The target in a further assay is T2, ROS1 (Homo sapiens, UniProt P08922).
T2 construct: purchased DiscoverX (KINOMEscan)
T2 sequence (P08922 28-2347): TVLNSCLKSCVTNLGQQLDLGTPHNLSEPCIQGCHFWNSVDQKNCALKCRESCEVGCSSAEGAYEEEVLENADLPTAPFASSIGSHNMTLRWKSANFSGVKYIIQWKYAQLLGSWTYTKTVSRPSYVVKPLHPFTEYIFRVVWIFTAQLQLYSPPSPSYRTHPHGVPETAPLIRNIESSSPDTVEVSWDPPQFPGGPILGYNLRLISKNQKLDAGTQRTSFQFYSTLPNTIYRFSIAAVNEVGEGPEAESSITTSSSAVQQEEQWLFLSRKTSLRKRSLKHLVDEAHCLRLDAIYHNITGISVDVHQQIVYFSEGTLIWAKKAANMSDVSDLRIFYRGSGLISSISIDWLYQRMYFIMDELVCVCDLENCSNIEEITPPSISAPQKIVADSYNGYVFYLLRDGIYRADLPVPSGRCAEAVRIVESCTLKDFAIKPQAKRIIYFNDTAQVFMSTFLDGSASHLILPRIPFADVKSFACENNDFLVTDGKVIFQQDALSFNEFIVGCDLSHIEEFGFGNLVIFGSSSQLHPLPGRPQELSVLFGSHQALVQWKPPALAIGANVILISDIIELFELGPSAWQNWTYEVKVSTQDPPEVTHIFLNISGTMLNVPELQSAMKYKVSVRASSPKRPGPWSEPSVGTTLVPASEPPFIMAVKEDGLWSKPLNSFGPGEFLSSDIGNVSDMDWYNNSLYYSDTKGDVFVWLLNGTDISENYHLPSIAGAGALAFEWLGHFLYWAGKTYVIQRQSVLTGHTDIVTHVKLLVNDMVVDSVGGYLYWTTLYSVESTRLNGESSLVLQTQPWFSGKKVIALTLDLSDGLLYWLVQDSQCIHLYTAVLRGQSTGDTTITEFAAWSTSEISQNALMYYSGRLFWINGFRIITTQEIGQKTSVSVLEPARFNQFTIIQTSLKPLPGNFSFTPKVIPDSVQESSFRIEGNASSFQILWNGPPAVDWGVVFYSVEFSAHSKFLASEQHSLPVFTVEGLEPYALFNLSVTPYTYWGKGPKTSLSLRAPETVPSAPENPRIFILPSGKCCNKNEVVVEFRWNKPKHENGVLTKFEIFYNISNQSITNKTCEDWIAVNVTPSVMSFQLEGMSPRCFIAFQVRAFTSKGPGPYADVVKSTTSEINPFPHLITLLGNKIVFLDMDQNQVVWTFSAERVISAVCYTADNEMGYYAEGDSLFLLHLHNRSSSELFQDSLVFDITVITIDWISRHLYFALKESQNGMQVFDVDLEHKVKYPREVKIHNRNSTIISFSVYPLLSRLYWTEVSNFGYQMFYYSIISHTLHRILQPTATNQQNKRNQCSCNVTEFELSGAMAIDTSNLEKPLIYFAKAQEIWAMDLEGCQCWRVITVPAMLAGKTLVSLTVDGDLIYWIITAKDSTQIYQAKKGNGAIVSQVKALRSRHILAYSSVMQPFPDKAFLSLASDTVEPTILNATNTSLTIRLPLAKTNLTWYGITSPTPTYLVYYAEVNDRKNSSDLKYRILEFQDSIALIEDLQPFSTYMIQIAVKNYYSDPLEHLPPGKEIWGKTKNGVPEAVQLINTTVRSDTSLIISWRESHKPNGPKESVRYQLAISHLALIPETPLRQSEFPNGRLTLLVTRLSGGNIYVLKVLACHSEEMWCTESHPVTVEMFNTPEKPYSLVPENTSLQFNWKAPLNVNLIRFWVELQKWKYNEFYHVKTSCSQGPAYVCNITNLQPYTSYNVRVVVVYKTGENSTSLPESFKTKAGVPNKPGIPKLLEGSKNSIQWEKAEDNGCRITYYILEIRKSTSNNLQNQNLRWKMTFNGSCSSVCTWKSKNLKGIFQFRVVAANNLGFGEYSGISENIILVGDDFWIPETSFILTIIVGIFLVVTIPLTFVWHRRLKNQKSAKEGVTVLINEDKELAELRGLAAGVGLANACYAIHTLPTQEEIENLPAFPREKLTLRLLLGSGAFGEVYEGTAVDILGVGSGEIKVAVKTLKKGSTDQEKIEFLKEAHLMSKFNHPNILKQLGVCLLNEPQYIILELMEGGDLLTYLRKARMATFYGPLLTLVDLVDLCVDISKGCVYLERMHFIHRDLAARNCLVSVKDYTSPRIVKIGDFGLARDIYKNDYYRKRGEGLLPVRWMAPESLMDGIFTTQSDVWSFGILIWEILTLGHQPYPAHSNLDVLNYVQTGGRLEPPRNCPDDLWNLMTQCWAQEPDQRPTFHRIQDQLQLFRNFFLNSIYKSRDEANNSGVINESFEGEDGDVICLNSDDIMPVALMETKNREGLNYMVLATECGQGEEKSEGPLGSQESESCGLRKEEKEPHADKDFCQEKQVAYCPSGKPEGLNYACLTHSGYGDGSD
As to the kind of experiment: KINOMEscan competitive binding. The note with it: n=1, read-out: Percent inhibition, ROS1.

In the next assay the target is T3, TLK2 (Homo sapiens, UniProt Q86UE8).
T3 construct: purchased DiscoverX (KINOMEscan)
T3 sequence (Q86UE8 whole entry): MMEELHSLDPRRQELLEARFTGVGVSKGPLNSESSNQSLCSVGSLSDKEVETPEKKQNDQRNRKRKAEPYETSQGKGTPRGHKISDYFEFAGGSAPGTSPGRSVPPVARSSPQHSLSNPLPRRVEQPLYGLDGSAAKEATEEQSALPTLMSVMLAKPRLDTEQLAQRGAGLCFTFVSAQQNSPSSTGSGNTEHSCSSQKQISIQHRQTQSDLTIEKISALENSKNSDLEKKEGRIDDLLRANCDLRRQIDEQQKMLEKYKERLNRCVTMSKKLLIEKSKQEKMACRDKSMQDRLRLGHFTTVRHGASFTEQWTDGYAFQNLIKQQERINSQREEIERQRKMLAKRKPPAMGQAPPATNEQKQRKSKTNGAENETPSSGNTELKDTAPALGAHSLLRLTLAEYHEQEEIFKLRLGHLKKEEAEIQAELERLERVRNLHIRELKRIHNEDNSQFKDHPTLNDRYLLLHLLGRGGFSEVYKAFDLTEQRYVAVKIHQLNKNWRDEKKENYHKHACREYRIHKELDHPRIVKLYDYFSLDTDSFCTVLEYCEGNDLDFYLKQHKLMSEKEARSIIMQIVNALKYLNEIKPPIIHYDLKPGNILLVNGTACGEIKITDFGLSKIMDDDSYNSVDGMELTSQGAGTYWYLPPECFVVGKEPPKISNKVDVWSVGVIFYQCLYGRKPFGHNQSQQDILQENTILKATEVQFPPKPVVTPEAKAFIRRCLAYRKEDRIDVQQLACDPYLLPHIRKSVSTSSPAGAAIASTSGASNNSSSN
Put plainly: KINOMEscan competitive binding. The note with it: n=1, read-out: Percent inhibition, TLK2.

A further assay addresses T4, PDPK1 (Homo sapiens, UniProt O15530).
T4 construct: purchased DiscoverX (KINOMEscan)
T4 sequence (O15530 1-556): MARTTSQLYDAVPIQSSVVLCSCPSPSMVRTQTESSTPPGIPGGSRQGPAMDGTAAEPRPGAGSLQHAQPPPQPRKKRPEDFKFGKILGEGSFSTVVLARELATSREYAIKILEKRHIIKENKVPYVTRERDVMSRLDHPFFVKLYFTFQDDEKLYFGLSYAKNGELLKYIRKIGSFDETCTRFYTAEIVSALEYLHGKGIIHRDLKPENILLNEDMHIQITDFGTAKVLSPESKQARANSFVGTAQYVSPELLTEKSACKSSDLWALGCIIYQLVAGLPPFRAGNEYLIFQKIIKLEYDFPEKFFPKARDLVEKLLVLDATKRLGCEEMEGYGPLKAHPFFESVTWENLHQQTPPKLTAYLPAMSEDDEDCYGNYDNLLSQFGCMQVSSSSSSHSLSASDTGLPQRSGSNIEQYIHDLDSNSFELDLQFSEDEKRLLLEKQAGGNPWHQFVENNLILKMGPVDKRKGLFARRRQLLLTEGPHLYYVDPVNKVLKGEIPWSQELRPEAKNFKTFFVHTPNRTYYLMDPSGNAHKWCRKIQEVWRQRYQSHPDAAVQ
As to the kind of experiment: KINOMEscan competitive binding. The note with it: n=1, read-out: Percent inhibition, PDPK1.

The target of the next assay is T5, PKMYT1 (Homo sapiens, UniProt Q99640).
T5 construct: purchased DiscoverX (KINOMEscan)
T5 sequence (Q99640 1-499): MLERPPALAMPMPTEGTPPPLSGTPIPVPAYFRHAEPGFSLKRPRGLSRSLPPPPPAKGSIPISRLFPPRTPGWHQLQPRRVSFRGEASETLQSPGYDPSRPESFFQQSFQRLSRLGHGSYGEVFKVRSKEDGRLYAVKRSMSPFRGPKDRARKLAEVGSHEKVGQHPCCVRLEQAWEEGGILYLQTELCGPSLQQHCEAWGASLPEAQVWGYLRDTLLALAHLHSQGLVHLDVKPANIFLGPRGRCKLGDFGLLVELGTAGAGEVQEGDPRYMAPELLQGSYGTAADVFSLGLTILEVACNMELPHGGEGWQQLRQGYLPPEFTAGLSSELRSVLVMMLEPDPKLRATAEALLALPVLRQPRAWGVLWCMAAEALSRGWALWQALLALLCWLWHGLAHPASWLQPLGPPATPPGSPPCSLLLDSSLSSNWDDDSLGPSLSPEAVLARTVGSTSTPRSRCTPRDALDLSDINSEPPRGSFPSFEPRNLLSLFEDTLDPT
Put plainly: KINOMEscan competitive binding. The note with it: n=1, read-out: Percent inhibition, PKMYT1.

Another assay concerns the target T6, TGFBR1 (Homo sapiens, UniProt P36897).
T6 construct: purchased DiscoverX (KINOMEscan)
T6 sequence (P36897 34-503): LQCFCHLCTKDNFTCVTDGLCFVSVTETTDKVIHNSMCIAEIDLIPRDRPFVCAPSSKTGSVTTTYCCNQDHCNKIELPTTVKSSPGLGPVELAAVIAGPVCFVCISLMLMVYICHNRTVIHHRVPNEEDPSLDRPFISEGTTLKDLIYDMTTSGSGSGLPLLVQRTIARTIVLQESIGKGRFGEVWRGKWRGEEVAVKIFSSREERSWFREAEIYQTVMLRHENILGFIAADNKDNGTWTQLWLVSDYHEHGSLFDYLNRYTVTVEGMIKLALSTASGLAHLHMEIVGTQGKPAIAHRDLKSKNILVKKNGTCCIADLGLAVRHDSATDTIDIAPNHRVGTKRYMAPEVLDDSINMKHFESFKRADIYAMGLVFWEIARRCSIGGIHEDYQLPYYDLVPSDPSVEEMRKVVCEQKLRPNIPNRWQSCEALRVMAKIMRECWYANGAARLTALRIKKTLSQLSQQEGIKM
As to the kind of experiment: KINOMEscan competitive binding. The settings on record: n=1, read-out: Percent inhibition, TGFBR1.

T1 sequence (O60674 840-1132): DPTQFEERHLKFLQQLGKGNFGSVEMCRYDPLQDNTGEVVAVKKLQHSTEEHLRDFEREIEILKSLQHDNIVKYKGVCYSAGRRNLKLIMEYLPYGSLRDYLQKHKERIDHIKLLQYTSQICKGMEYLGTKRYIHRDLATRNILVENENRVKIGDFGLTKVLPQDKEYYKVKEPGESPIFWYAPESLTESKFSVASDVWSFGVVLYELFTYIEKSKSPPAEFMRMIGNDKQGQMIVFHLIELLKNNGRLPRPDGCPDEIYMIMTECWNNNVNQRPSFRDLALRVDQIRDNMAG

In the case of `Cc1ccc(O)cc1Nc1ccnc(Nc2cccc(C(N)=O)c2)n1` [Compound 3], the negative-log EC50 (pEC50) – broadly, the negative decadic logarithm of the EC50, by convention in mol/L – in the assay with Cryptosporidium parvum was 6.21. Besides, the inhibition (commonly the relative decrease from the control value, in per cent) at 10 µM was 94.4% in the assay on Cryptosporidium parvum; 80.6% at JAK kinase domains; 0% on ROS1; 0% at TLK2; 0% on PDPK1; 97.9% on PKMYT1. In addition, the inhibition at 10 µM at TGFBR1 was 100%.
Consider `Clc1ccc(Nc2ncc(-c3ccccc3)s2)cc1` [Compound 10], for which the pEC50 in the assay with Cryptosporidium parvum is 6.38. Also, the inhibition at 10 µM was 95.1% in the assay with Cryptosporidium parvum; 0% on JAK kinase domains; 0% at ROS1; 0% on TLK2; 0% at PDPK1; 0% on PKMYT1. Besides, the inhibition at 10 µM at TGFBR1 was found to be 0%.
On to `c1ccc(COc2cccc(-c3ccnc4[nH]ccc34)c2)cc1` [Compound 9], for which the pEC50 with Cryptosporidium parvum is 6.51. Besides, the inhibition at 10 µM amounted to 95.2% in the assay on Cryptosporidium parvum; 0% on JAK kinase domains; 0% on ROS1; 0% on TLK2; 0% at PDPK1; 0% on PKMYT1. Further, on TGFBR1, the inhibition at 10 µM is 0%.
As for `Fc1cccc(COc2ccc(Nc3ncnc4c3CN(CCN3CCOCC3)CC4)cc2Cl)c1` [Compound 6], the negative logarithm of the EC50 (pEC50) with Cryptosporidium parvum is 6.62. For the same compound, the inhibition at 10 µM in the assay with Cryptosporidium parvum worked out at 93.7%; on JAK kinase domains, 0%; at ROS1 it was 0%; at TLK2, 0%; on PDPK1, 0%; on PKMYT1, 0%. In addition, on TGFBR1, the inhibition at 10 µM stood at 0%.
`C[C@@H](Oc1cc(-c2cnc3ccccn23)sc1C(N)=O)c1ccccc1Cl` [Compound 8]: in the assay with Cryptosporidium parvum, the pEC50 was 6.41. In addition, the inhibition at 10 µM with Cryptosporidium parvum was 95%; at JAK kinase domains it was 70.2%; on ROS1, 0%; at TLK2, 0%; at PDPK1 it was 0%; on PKMYT1 it was 81.5%. Further, on TGFBR1, the inhibition at 10 µM was 0%.
On to `CN1CCN(c2ccc(Nc3nccc(-c4cnn5ncccc45)n3)cc2C#N)CC1` [Compound 1], for which, in the assay with Cryptosporidium parvum, the pEC50 is 7.40. Also, the inhibition at 10 µM with Cryptosporidium parvum was 95.6%; at JAK kinase domains, 86.8%; at ROS1, 91.9%; at TLK2, 98.7%; on PDPK1, 0%; on PKMYT1, 0%. The inhibition at 10 µM at TGFBR1 stood at 78.8%.
Consider `Cc1ccc(O)cc1N(C)c1ccnc(Nc2cccc(S(N)(=O)=O)c2)n1` [Compound 4], for which the negative logarithm of the EC50 (pEC50) with Cryptosporidium parvum was 7.10. The inhibition at 10 µM came out at 95.5% in the assay with Cryptosporidium parvum; 90.7% on JAK kinase domains; 90% on ROS1; 0% at TLK2; 0% on PDPK1; 100% on PKMYT1. On TGFBR1, the inhibition at 10 µM is 100%.
`COc1ccc(Nc2nccc(-c3cnn4ncccc34)n2)cc1` [Compound 2]: in the assay with Cryptosporidium parvum, the negative-log EC50 (pEC50) was 6.89. Further, the inhibition at 10 µM was 92.9% in the assay with Cryptosporidium parvum; 89.7% on JAK kinase domains; 90.3% on ROS1; 0% at TLK2; 0% on PDPK1; 0% on PKMYT1. The inhibition at 10 µM on TGFBR1 was 0%.
In the case of `Nc1ncc2c(-c3ccncc3)c[nH]c2n1` [Compound 11], in the assay with Cryptosporidium parvum, the pEC50 is 7.22. Besides, the inhibition at 10 µM in the assay with Cryptosporidium parvum was 90.8%; at JAK kinase domains, 0%; at ROS1, 0%; at TLK2, 0%; on PDPK1, 79.6%; at PKMYT1, 0%. On TGFBR1, the inhibition at 10 µM is 0%.
In the case of `COc1cc(Nc2nccc(-c3sc(N)nc3-c3cccc(NC(=O)c4c(F)cccc4F)c3)n2)cc(OC)c1OC` [Compound 7], in the assay on Cryptosporidium parvum, the pEC50 was 6.74. Further, the inhibition at 10 µM in the assay on Cryptosporidium parvum came out at 90.9%; at JAK kinase domains, 0%; at ROS1 it was 80.6%; on TLK2, 0%; on PDPK1 it was 68.3%; on PKMYT1 it was 0%. Further, the inhibition at 10 µM on TGFBR1 came out at 72.9%.
